Patent US20100189681A1, “Methods of Using Phosphoantigens Together with Interleukin-2 for the Treatment of Cancer” (INNATE PHARMA S.A., priority 2007, published 2010)
“Also recorded” adds a separate entry of the source.

Experiments:
[1] = system: total T cells; assay: Phase II clinical trial in mRCC, total T cell fold increase day 7 vs pre-dose; type: in vivo, human; conditions: Phosphostim with IL-2 2 MIU or 8 MIU total daily (FIG. 3)
Protocol: (§1) FIG. 3 has been obtained from observations made during the clinical trial as described above. On day 7, cell subsets were determined and compared to the count made on day 0, before the treatment.
(§2) A specific pharmacological expansion of γδ T cell with Phosphostim™ was observed, and this expansion was related to dose of IL-2 administered. […] Moreover, despite an increased dose of IL-2 compared to previous publications, this expansion is still very specific to γδ T cells.

[2] = system: γδ T cells; assay: Phase I BrHPP dose escalation with IL-2 1 MU/m^2, γδ T cell amplification (FIG. 7); type: in vivo, human; conditions: BrHPP 100, 300, 600 and 900 MU/m^2 iv 30 min infusion day 1; IL-2 1 MU/m^2 daily for four days
Protocol: The first four columns (corresponding to 100, 300, 600 and 900 MU/m^2 doses of BrHPP) correspond to patients treated with BrHPP (iv, 30 min infusion on day 1) and IL-2 (1 MU/m^2 daily for four days starting on day 1) whereas the last two columns represent B-NHL patients who have been treated with 4 MIU total in human daily (arm A), or 8 MIU total in human daily (arm B), in the treatment setting described for FIG. 6.

[3] = system: γδ T cells; assay: Phase II clinical trial in B-NHL with rituximab, γδ T cell fold increase; type: in vivo, human; conditions: for γδ T cell fold increase as compared to pre-dose (mean): B-NHL, Phosphostim once day 7, rituximab 375 mg/m^2, measured day 0 and day 145
Protocol: (§3) 5 patients suffering from B-NHL are treated with 4 MIU total in human daily (arm A, 3 patients), or 8 MIU total in human daily (arm B, 2 patients). The treatment regimen used for this study is set out in FIG. 4B.
(§4) Rituxan™ (rituximab) is administered at a dose of 375 mg/m^2, on day 0 and then on day 7, 14 and 21, which corresponds to the common Rituxan™ treatment. Phosphostim™ is administered once on day 7 which is the first day of treatment. IL-2 is administered daily subcutaneous (s.c.) from day 7 to day 11. On day 7, IL-2 is administered 10 minutes after the end of Phosphostim™ infusion.
γδ T cell population is measured through cytometry on day 0 (before the beginning of the treatment) and on day 145 (corresponds to day 7 from the beginning of the Phosphostim™ treatment. The expansion of γδ T cell is obtained in fold increase compared to the basal γδ T cell count.

[4] = Phase II clinical trial in mRCC, tolerance / toxicity; type: in vivo, human; conditions: mRCC patients
Protocol: (§5) A phase II clinical trial in mRCC was set up, to test the efficacy of a therapeutic regimen with a fixed dose of Phosphostim™ (750 mg/m^2, 50 ml infusion in 30 min) and two doses of IL-2.
(§6) Patients in Arm A were treated with an IL-2 dose of 2 MIU total daily (equivalent to approximately 1 MIU/m^2 daily). Patients in Arm B were treated with an IL-2 dose of 8 MIU total daily. For practical reasons, and as a human body surface varies from 1.5 to 2.1 m^2 depending on each variable of the patient, a single dose for all the patients of Arm B was fixed. It will be appreciated that when taking the variations in body surface into account, this 8 MIU total daily dose of IL-2 can also be expressed as a range from […] daily.
(§7) Patients suffering from mRCC were treated with a fixed dose of Phosphostim™ (750 mg/m^2, i.v. infusion of 30 min) and IL-2, at a dose of 2 MIU subcutaneous (s.c.) daily (arm A, 18 patients), or 8 MIU s.c. daily (arm B, 21 patients).
(§8) Phosphostim™ was administered once on day 1 which is the first day of treatment. IL-2 is administered daily s.c. from day 1 to day 5. On day 1, IL-2 is administered 10 minutes after the end of Phosphostim™ infusion.

[5] = Phase II clinical trial in B-NHL with rituximab, tolerance / toxicity; type: in vivo, human; conditions: B-NHL patients
Protocol: as §3, §4

[6] = system: NK cells; assay: Phase II clinical trial in mRCC, NK cell fold increase day 7 vs pre-dose; type: in vivo, human; conditions: Phosphostim with IL-2 2 MIU or 8 MIU total daily (FIG. 3)
Protocol: as §1, §2

[7] = system: γδ T cells; assay: Phase II clinical trial in mRCC, γδ T cell fold increase day 7 vs pre-dose (flow cytometry); type: in vivo, human
Protocol: Blood samples (4 ml) were withdrawn into EDTA containing tubes. Tubes were shipped overnight at room temperature (RT) before flow cytometry analyses.
Peripheral lymphocytes were analyzed by flow cytometry on total blood, after triple staining with anti-Vδ2FITC, anti-CD3PE and anti-CD25PC5 antibodies (Vδ2-FITC: IMMU389 clone, Immunotech-Beckman-Coulter, Marseilles, France; CD3-PE: UCHT1 clone, Immunotech-Beckman-Coulter; CD25PC5: M-A251 clone, Becton Dickinson, Le Pont de Claix, France).
Briefly, 100 μl patient blood was incubated 15 min at RT with 10 μl anti-Vdelta2-FITC, 10 μl anti-CD3-PE and 10 μl anti-CD25PC5 antibodies. Antibodies were washed with 3 ml 1×PBS, centrifuged for 4 min at 1300 rpm at RT and supernatant was discarded. Red cells were lysed with the OptiLyse B reagent (Immunotech-Beckman-Coulter, Marseilles, France) according to the manufacturer's instructions. At the final step, stained white blood cells were recovered by centrifugation and resuspended in 300 μl 1×PBS+0.2% PFA. Flow cytometry analysis on viable cells was performed on a FacsSCAN apparatus (Becton Dickinson) with the FacsDiva software.
as §5, §6, §7, §8
γδ T cell population was measured through cytometry on day 0 (before the beginning of the treatment) and on day 7. The expansion of γδ T cell was obtained in fold increase of expansion compared to the basal γδ T cell count.

[8] = system: Vγ9Vδ2 T cells; assay: IL-2 dose range with fixed dose of Phosphostim in cynomolgus macaque, Vγ9Vδ2 T cell expansion by flow cytometry; type: in vivo, cynomolgus monkeys (M. fascicularis); conditions: Phosphostim 48 mg/kg i.v. once, day 5 vs day 0
Protocol: As detailed in Example 2, a study has been set up on nonhuman primates (Cynomolgus macaques) to investigate the effect of the IL-2 dose on γδ T cell expansion in vivo, with a fixed dose of Phosphostim™ (48 mg/kg). Blood extracts have been dosed by flow cytometry on day 5 and the γδ T cell expansion has been expressed in expansion percentage compared to the basal γδ T cell count.
Follow up of Vγ9Vδ2 T cells in vivo in the macaque has been performed as usual by flow cytometry on days 0 (pre-dose) and 5 of treatment. […]
IL2: recombinant human IL2, Proleukin™, CHIRON; administered daily by subcutaneous (s.c.) route.
Phosphostim™ dose 48 mg/kg administered as 30-min infusion by intravenous (i.v.) route.
Twelve cynomolgus monkeys (M. fascicularis) aged 2.5 to 3.5 years at the start of the study. These animals were naïve of any previous treatment with phosphoantigens or IL2.
The animals have been allocated to 4 dose-groups (0.075, 0.3, 1.2 and 2.4 million UI per day for 7 days), with 3 animals per dose, receiving IL2 daily for 7 days have, and a fixed dose of Phosphostim™ 200 (48 mg/kg) once, on the first day of treatment, with 3 animals per dose.

[9] = system: γδ T cells; conditions: adults with multiple myeloma, intravenous 60-90 mg, within one to three weeks (Kunzmann, 1999); cited from earlier work
[10] = in vivo; cited from earlier work

3-(bromomethyl)-3-butanol-1-yl-diphosphate [Phosphostim™]
total T cell fold increase on day 7 as compared to pre-dose [1]: are not expanded; also recorded: nor a significant total T cell expansion
influence of the quantity of BrHPP on the γδ T cell amplification [2]: slight influence
γδ T cell fold increase as compared to pre-dose (mean) ([3]; arm A: IL-2 4 MIU total daily s.c. day 7-11, 3 patients): 17 fold
γδ T cell fold increase as compared to pre-dose (mean) ([3]; arm B: IL-2 8 MIU total daily s.c. day 7-11, 2 patients): 46 fold
γδ T cell amplification, higher IL-2 dose compared to lower dose ([3]; IL-2 8 MIU total daily vs lower IL-2 doses (FIGS. 6 and 7)): much better γδ T cell amplification
toxicity in Arm B compared to Arm A ([4]; IL-2 8 MIU vs 2 MIU total daily with Phosphostim): none of the patients in arm B experienced an adverse toxicity effect; also recorded: no significant difference in toxicity
tolerance to the IL-2 dose administered with Phosphostim ([4]; arm B IL-2 8 MIU total daily): good tolerance
toxicity in Arm B compared to Arm A ([5]; IL-2 8 MIU vs 4 MIU total daily): no significant difference in toxicity
tolerance to the IL-2 dose administered with Phosphostim and rituximab ([5]; arm B IL-2 8 MIU total daily): good tolerance
NK cell fold increase on day 7 as compared to pre-dose [6]: are not expanded; also recorded: do not observe a significant NK cells expansion
γδ T cell expansion, arm B compared to arm A ([7]; IL-2 8 MIU total daily vs 2 MIU total daily, fixed Phosphostim 750 mg/m^2): significantly better γδ T cell expansion; also recorded: significantly higher
γδ T cell fold increase on day 7 as compared to pre-dose (mean) ([7]; arm A: IL-2 2 MIU total daily s.c. day 1-5, Phosphostim 750 mg/m^2 i.v. day 1, 18 patients (FIG. 2)): 3 fold
γδ T cell fold increase on day 7 as compared to pre-dose (mean) ([7]; arm A: IL-2 2 MIU total daily, updated results, 29 patients (FIG. 5)): 2 fold
γδ T cell fold increase on day 7 as compared to pre-dose (mean) ([7]; arm B: IL-2 8 MIU total daily s.c. day 1-5, Phosphostim 750 mg/m^2 i.v. day 1, 21 patients (FIG. 2)): 12 fold
γδ T cell fold increase on day 7 as compared to pre-dose (mean) ([7]; arm B: IL-2 8 MIU total daily, updated results, 31 patients (FIG. 5)): 8 fold
γδ T cell expansion ([8]; IL-2 0.075 MIU/animal/day s.c. for 7 days): not sufficient to induce a γδT cell specific amplification; also recorded: no effect
γδ T cell expansion ([8]; IL-2 0.3 MIU/animal/day s.c. for 7 days): specific and significant γδcell expansion; also recorded: weak γδT cell increase
γδ T cell expansion ([8]; IL-2 1.2 MIU/animal/day s.c. for 7 days): the expansion is higher; also recorded: significantly higher increase; also recorded: a plateau is observed at this dose
γδ T cell expansion ([8]; IL-2 2.4 MIU/animal/day s.c. for 7 days): the expansion is higher; also recorded: significantly higher increase; also recorded: does not trigger a better expansion than 1.2 MIU/animal/daily

NCCC(O)(P(=O)(O)O)P(=O)(O)O [pamidronate, 3-amino-1-hydroxypropane-1,1-diphosphonic acid]
circulating γδ T cells [9]: increases of circulating γδ T cells

des-alanyl-1, serine-125-human interleukin-2 [IL-2]
toxicity grade reported [10]: grade III or IV toxicity
